Experimental data taken from patent US10214534B2, “Substituted 2-phenyl (AZA)benzofuran compounds for the treatment of hepatitis C” (BRISTOL-MYERS SQUIBB COMPANY, priority 2014, dated 2019).
Like-named read-outs stand apart in the source and are kept apart here.

Tests used:
[1] = system: genotype 1b (Con-1) HCV replicon; assay: HCV replicon luciferase assay; format: cell-based; details: Hepatitis C virus, 72 h, genotype 1b replicon, Huh-7, Renilla luciferase, 3 days
Experimental: The cell lines used to evaluate compounds consist of a human hepatocyte derived cell line (Huh-7) that constitutively expresses a genotype 1b (Con-1) HCV replicon or a genotype 1b (Con-1) HCV replicon with an asparagine replacing the cysteine at amino acid 316, or a genotype 2a (JFH-1) replicon, containing a Renilla luciferase reporter gene. These cells were maintained in Dulbecco's modified Eagle medium (DMEM) containing 10% FBS, 100 U/mL penicillin/streptomycin and 1.0 mg/mL G418.
To evaluate compound efficacy, titrated compounds were transferred to sterile 384-well tissue culture treated plates, and the plates were seeded with HCV replicon cells (50 μL at a density of 2.4×10^3 cells/well) in DMEM containing 4% FBS (final DMSO concentration at 0.5%). After 3 days incubation at 37° C., cells were analyzed for Renilla Luciferase activity using the EnduRen substrate (Promega cat #E6485) according to the manufacturer's directions. Briefly, the EnduRen substrate was diluted in DMEM and then added to the plates to a final concentration of 7.5 μM. The plates were incubated for at least 1 h at 37° C. then read on a Viewlux Imager (PerkinElmer) using a luminescence program. The 50% effective concentration (EC50) was calculated using the four-parameter logistic formula noted above.

[2] = system: HCV; details: cited from earlier work
[3] = system: HCV; details: cited from earlier work; remark: listed apart in the source

Compound	EC50 ([1]; read-out: EC50 1b (class)) [µM]	also measured
CCN(c1cc2oc(-c3ccc(Oc4cccc(F)c4)cc3)c(C(=O)NC)c2cc1-c1cccc(C(N)=O)c1)S(C)(=O)=O [Compound 1018]	< 0.1	
CNC(=O)c1c(-c2ccc(Oc3ccc(OC)cc3)cc2)oc2nc(CCC(F)(F)F)c(-c3cccc(C(=O)NC(C)(C)C)c3)cc12 [Compound 2003]	0.1 to 1	
CCNc1cc2oc(-c3ccc(Oc4cccc(F)c4)cc3)c(C(=O)NC)c2cc1-c1cccc(C(=O)NC(C)(C)CC(=O)O)c1 [Compound 1013]	0.1 to 1	
CNC(=O)c1c(-c2ccc(Oc3ccc(F)cc3)cc2)oc2cc(N(C)S(C)(=O)=O)c(-c3cccc(C(=O)NCC(F)(F)F)c3)cc12 [Compound 1026]	< 0.1	
CNC(=O)c1c(-c2ccc(Oc3ccc(F)cc3)cc2)oc2nc(CCC(F)(F)F)c(-c3cccc(C(=O)NC(C)(C)C)c3)cc12 [Compound 2004]	< 0.1	
alpha-interferon and ribavirin		sustained efficacy, share of patients [2]: 40%
CCN(c1cc2oc(-c3ccc(Oc4ccc(F)cc4)cc3)c(C(=O)NC)c2cc1-c1cccc(C(=O)NC(C)(C)C)c1)S(C)(=O)=O [Compound 1002]	< 0.1	
CCN(c1cc2oc(-c3ccc(Oc4ccccc4OC)cc3)c(C(=O)NC)c2cc1-c1cccc(C(=O)NC(C)(C)C)c1)S(C)(=O)=O [Compound 1007]	< 0.1	EC50 ([1]; read-out: EC50 (uM) 1b): 0.024 µM
CNC(=O)c1c(-c2ccc(Oc3ccccc3OC)cc2)oc2nc(CCC(F)(F)F)c(-c3cccc(C(=O)NC(C)(C)C)c3)cc12 [Compound 2010]	< 0.1	
CCN(c1cc2oc(-c3ccc(Oc4cccc(Cl)c4)cc3)c(C(=O)NC)c2cc1-c1cccc(C(=O)N[C@@H](C)C(F)(F)F)c1)S(C)(=O)=O [Compound 1019]	< 0.1	
CNC(=O)c1c(-c2ccc(Oc3ccccc3F)cc2)oc2nc(CCC(F)(F)F)c(-c3cccc(C(=O)NC(C)(C)C)c3)cc12 [Compound 2006]	< 0.1	
CCN(c1cc2oc(-c3ccc(Oc4ccccc4)cc3)c(C(=O)NC)c2cc1-c1cccc(C(=O)NC(C)(C)C)c1)S(C)(=O)=O [Compound 1001]	< 0.1	
CNC(=O)c1c(-c2ccc(Oc3cccc(F)c3)cc2)oc2nc(CCC(F)(F)F)c(-c3cccc(C(=O)NC(C)(C)C)c3)cc12 [Compound 2005]	< 0.1	
CCOC(=O)c1c(-c2ccc(Oc3cccc(O)c3)cc2)oc2cc([N+](=O)[O-])c(O)cc12 [Compound 1014]	> 1	EC50 ([1]; read-out: EC50 (uM) 1b): 9.94 µM
CNC(=O)c1c(-c2ccc(N3CCCC3)cc2)oc2nc(CCC(F)(F)F)c(-c3cccc(C(=O)NC(C)(C)C)c3)cc12 [Compound 4001]	> 1	
[2H]C([2H])([2H])C(NC(=O)c1cc(-c2cc3c(C(=O)NC)c(-c4ccc(Oc5ccc(F)cc5)cc4)oc3cc2N(CC)S(C)(=O)=O)ccc1OC)(C([2H])([2H])[2H])C([2H])([2H])[2H] [Compound 1022]	< 0.1	
[2H]C([2H])([2H])C(NC(=O)c1cc(-c2cc3c(C(=O)NC)c(-c4ccc(Oc5cccc(F)c5)cc4)oc3cc2N(CC)S(C)(=O)=O)ccc1OC)(C([2H])([2H])[2H])C([2H])([2H])[2H] [Compound 1021]	< 0.1	
CCN(c1cc2oc(-c3ccc(Oc4ccccc4F)cc3)c(C(=O)NC)c2cc1-c1cccc(C(=O)NC(C)(C)C)c1)S(C)(=O)=O [Compound 1004]	< 0.1	
CNC(=O)c1c(-c2ccc(Oc3cccc(F)c3)cc2)oc2nc(CCC(F)(F)F)c(-c3ccc(OC)c(C(=O)NC4(c5ncccn5)CC4)c3)cc12 [Compound 2014]	< 0.1	
CNC(=O)c1c(-c2ccc(Oc3ccccn3)cc2)oc2nc(CCC(F)(F)F)c(-c3cccc(C(=O)NC(C)(C)C)c3)cc12 [Compound 2012]	> 1	
CNC(=O)c1c(-c2ccc(C(C#N)C(N)=O)cc2)oc2nc(CCC(F)(F)F)c(-c3cccc(C(=O)NC(C)(C)C)c3)cc12 (stereo not drawn) [Compound 6001]	0.1 to 1	EC50 ([1]; read-out: EC50 (uM) 1b): 0.34 µM
CCCCOc1ccc(-c2oc3nc(CCC(F)(F)F)c(-c4cccc(C(=O)NC(C)(C)C)c4)cc3c2C(=O)NC)cc1 [Compound 3001]	< 0.1	
CNC(=O)c1c(-c2ccc(Oc3cccc(F)c3)cc2)oc2cc(N(C)S(C)(=O)=O)c(-c3cccc(C(=O)NCC(F)(F)F)c3)cc12 [Compound 1020]	< 0.1	

Compound	EC50 ([1]; read-out: EC50 1b (class)) [µM]	also measured
CCN(c1cc2oc(-c3ccc(Oc4cccc(OC)c4)cc3)c(C(=O)NC)c2cc1-c1cccc(C(=O)NC(C)(C)C)c1)S(C)(=O)=O [Compound 1006]	< 0.1	
CNC(=O)c1c(-c2ccc(Oc3ccc(C(=O)O)cc3)cc2)oc2nc(CCC(F)(F)F)c(-c3cccc(C(=O)NC(C)(C)C)c3)cc12 [Compound 2013]	> 1	
CCN(c1cc2oc(-c3ccc(Oc4cccc(F)c4)cc3)c(C(=O)NC)c2cc1-c1cccc(C(=O)NC2(C)CC2)c1)S(C)(=O)=O [Compound 1015]	> 1	
CNC(=O)c1c(-c2ccc(Sc3ccccc3)cc2)oc2nc(CCC(F)(F)F)c(-c3cccc(C(=O)NC(C)(C)C)c3)cc12 [Compound 5001]	0.1 to 1	EC50 ([1]; read-out: EC50 (uM) 1b): 0.16 µM
CNC(=O)c1c(-c2ccc(OCC(F)(F)F)cc2)oc2nc(CCC(F)(F)F)c(-c3cccc(C(=O)NC(C)(C)C)c3)cc12 [Compound 3002]	< 0.1	
CCNc1nc2oc(-c3ccc(C)cc3)c(C(=O)NC)c2cc1-c1cccc(C(=O)NC2(C(F)(F)F)CC2)c1 [Compound 6003, 6-(ethylamino)-N-methyl-2-(p-tolyl)-5-(3-((1-(trifluoromethyl)cyclopropyl)carbamoyl)phenyl)furo[2,3-b]pyridine-3-carboxamide]	< 0.1	EC50 ([1]; read-out: EC50 (uM) 1b): 0.0061 µM
CCN(c1cc2oc(-c3ccc(Oc4cccc(F)c4)cc3)c(C(=O)NC)c2cc1-c1cccc(C(=O)NCC(C)(C)CO)c1)S(C)(=O)=O [Compound 1023]	< 0.1	EC50 ([1]; read-out: EC50 (uM) 1b): 0.0028 µM
CCN(c1cc2oc(-c3ccc(Oc4cccc(Cl)c4)cc3)c(C(=O)NC)c2cc1-c1cccc(C(N)=O)c1)S(C)(=O)=O [Compound 1016]	< 0.1	
CCN(c1cc2oc(-c3ccc(Oc4ccc(OC)cc4)cc3)c(C(=O)NC)c2cc1-c1cccc(C(=O)NC(C)(C)C)c1)S(C)(=O)=O [Compound 1005]	0.1 to 1	EC50 ([1]; read-out: EC50 (uM) 1b): 0.12 µM
CCN(CC)c1cc2oc(-c3ccc(Oc4cccc(F)c4)cc3)c(C(=O)NC)c2cc1-c1cccc(C(=O)NC(C)(C)C(=O)O)c1 [Compound 1012]	> 1	EC50 ([1]; read-out: EC50 (uM) 1b): 1.47 µM
CNC(=O)c1c(-c2ccc(NCC(F)F)cc2)oc2nc(NCC(F)F)c(-c3cccc(C(=O)NC(C)(C)C)c3)cc12 [Compound 4002]	< 0.1	EC50 ([1]; read-out: EC50 (uM) 1b): 0.0094 µM
CNC(=O)c1c(-c2ccc(Oc3ccc(C)cc3)cc2)oc2nc(CCC(F)(F)F)c(-c3cccc(C(=O)NC(C)(C)C)c3)cc12 [Compound 2002]	< 0.1	
CNC(=O)c1c(-c2ccc(Oc3ccccc3)cc2)oc2nc(CCC(F)(F)F)c(-c3cccc(C(=O)NC(C)(C)C)c3)cc12 [Compound 2001]	< 0.1	
CNC(=O)c1c(-c2ccc(F)cc2)oc2cc(N(CCO)S(C)(=O)=O)c(C3CC3)cc12 [HCV-796]		toxicity during extended dosing ([3]; extended dosing of the combination regimens): hepatic toxicity; HCV RNA levels in patients ([3]; patients, single agent transient, more robust with interferon and ribavirin): reduce HCV RNA levels
CNC(=O)c1c(-c2ccc(Oc3ccccc3C)cc2)oc2nc(CCC(F)(F)F)c(-c3cccc(C(=O)NC(C)(C)C)c3)cc12 [Compound 2008]	< 0.1	
CNC(=O)c1c(-c2ccc(Oc3cccnc3)cc2)oc2nc(CCC(F)(F)F)c(-c3cccc(C(=O)NC(C)(C)C)c3)cc12 [Compound 2011]	< 0.1	
CNC(=O)c1c(-c2ccc(Oc3cccc(C)c3)cc2)oc2nc(CCC(F)(F)F)c(-c3cccc(C(=O)NC(C)(C)C)c3)cc12 [Compound 2007]	< 0.1	
CCNc1nc2oc(-c3ccc(C)cc3)c(C(=O)NC)c2cc1-c1cccc(C(=O)NC(C)(C)C)c1 [Compound 6002, 5-(3-(tert-butylcarbamoyl)phenyl)-6-(ethylamino)-N-methyl-2-(p-tolyl)furo[2,3-b]pyridine-3-carboxamide]	< 0.1	EC50 ([1]; read-out: EC50 (uM) 1b): 0.0036 µM
CCN(CC)c1cc2oc(-c3ccc(Oc4cccc(F)c4)cc3)c(C(=O)NC)c2cc1-c1ccc(OC)c(C(N)=O)c1 [Compound 1010]	0.1 to 1	
CCN(c1cc2oc(-c3ccc(Oc4cccc(F)c4)cc3)c(C(=O)NC)c2cc1-c1cccc(C(=O)N[C@@H](C)C(F)(F)F)c1)S(C)(=O)=O [Compound 1017]	< 0.1	EC50 ([1]; read-out: EC50 (uM) 1b): 0.0062 µM
CCN(c1cc2oc(-c3ccc(Oc4cccc(F)c4)cc3)c(C(=O)NC)c2cc1-c1cccc(C(=O)NC(C)(C)C)c1)S(C)(=O)=O [Compound 1003]	< 0.1	EC50 ([1]; read-out: EC50 (uM) 1b): 0.0023 µM
CNC(=O)c1c(-c2ccc(Oc3cccc(OC)c3)cc2)oc2nc(CCC(F)(F)F)c(-c3cccc(C(=O)NC(C)(C)C)c3)cc12 [Compound 2009]	< 0.1	
CCN(CC)c1cc2oc(-c3ccc(Oc4cccc(F)c4)cc3)c(C(=O)NC)c2cc1-c1ccc(O)c(C(N)=O)c1 [Compound 1008]	< 0.1	EC50 ([1]; read-out: EC50 (uM) 1b): 0.013 µM
